Test: refractive index (other wavelength) (dimensionless); xn = mol fraction of the nth substance listed
Conditions: 101 kPa, Liquid, Standard Abbe refractometry

CC(C)OC(C)C [diisopropyl ether] + CO
refractive index
Conditions	Wavelength=40.47 nm	Wavelength=435.8 nm	Wavelength=486.1 nm	Wavelength=546.1 nm	Wavelength=587.6 nm	Wavelength=589.3 nm	Wavelength=632.8 nm	Wavelength=644 nm	Wavelength=706.5 nm
298.15 K, x2 = 0	–	–	–	–	–	1.3653	1.36402	1.36373	1.36237
298.15 K, x2 = 0.0423	–	–	–	–	–	1.36528	1.364	1.3637	1.36228
298.15 K, x2 = 0.0424	–	–	–	–	–	1.36525	1.36397	1.36367	1.36226
298.15 K, x2 = 0.082	–	–	–	–	–	1.36523	1.36395	1.36365	1.36224
298.15 K, x2 = 0.0822	–	–	–	–	–	1.36524	1.36396	1.36367	1.36226
298.15 K, x2 = 0.1171	–	–	–	–	–	1.36508	1.36381	1.36352	1.3621
298.15 K, x2 = 0.1271	–	–	–	–	–	1.3651	1.36381	1.36352	1.36211
298.15 K, x2 = 0.1827	–	–	–	–	–	1.36473	1.36346	1.36317	1.36175
298.15 K, x2 = 0.2162	–	–	–	–	–	1.36528	1.364	1.3637	1.36228
298.15 K, x2 = 0.251	–	–	–	–	–	1.36465	1.36338	1.36308	1.36166
298.15 K, x2 = 0.3298	–	–	–	–	–	1.36386	1.3626	1.36231	1.36089
298.15 K, x2 = 0.3577	–	–	–	–	–	1.36246	1.36121	1.36091	1.35951
298.15 K, x2 = 0.4497	–	–	–	–	–	1.36158	1.36034	1.36004	1.35863
298.15 K, x2 = 0.4525	–	–	–	–	1.36217	1.36212	1.36087	1.36057	1.35916
298.15 K, x2 = 0.522	–	–	–	–	1.35991	1.35986	1.35863	1.35833	1.35694
298.15 K, x2 = 0.5543	–	–	–	–	1.35952	1.35947	1.35812	1.35777	1.35655
298.15 K, x2 = 0.609	–	–	–	–	1.35663	1.35658	1.35536	1.35507	1.35369
298.15 K, x2 = 0.6529	–	–	–	–	1.35515	1.3551	1.35389	1.3536	1.35223
298.15 K, x2 = 0.7504	–	–	–	–	1.3513	1.35125	1.35005	1.34978	1.34842
298.15 K, x2 = 0.804	–	–	–	–	1.3471	1.34706	1.3459	1.34562	1.34426
298.15 K, x2 = 0.807	–	–	–	–	1.34699	1.34694	1.34578	1.3455	1.34415
298.15 K, x2 = 0.8727	–	–	–	–	1.34182	1.34177	1.34062	1.34036	1.33906
298.15 K, x2 = 0.9233	–	–	–	–	1.33495	1.3349	1.33379	1.33353	1.33225
298.15 K, x2 = 0.9253	–	–	–	–	1.33679	1.33674	1.33564	1.33535	1.33407
298.15 K, x2 = 0.9527	–	–	–	–	1.33364	1.33359	1.33248	1.33222	–
298.15 K, x2 = 0.9773	–	–	–	–	1.33017	1.33012	1.32903	1.32879	1.32755
298.15 K, x2 = 0.989	–	–	–	–	1.329	1.32895	1.32786	1.32761	1.32641
298.15 K, x2 = 0.9964	–	–	–	–	1.32759	1.32754	1.32645	1.32621	1.32502
303.15 K, x2 = 0	1.37321	1.37022	1.36687	1.36406	1.3626	1.36255	1.3613	1.361	1.3596
303.15 K, x2 = 0.0423	1.37316	1.37019	–	–	–	–	–	–	–
303.15 K, x2 = 0.0424	1.37317	1.37022	1.36682	1.36403	1.36256	1.36251	1.36124	1.36094	1.35954
303.15 K, x2 = 0.082	1.3731	1.37014	1.36677	1.36396	1.3625	1.36245	1.3612	1.3609	1.35948
303.15 K, x2 = 0.0822	1.37318	1.37022	1.36685	1.36406	1.36261	1.36256	1.36129	1.36099	–
303.15 K, x2 = 0.1171	1.37301	1.37006	1.36669	1.36389	1.36245	1.3624	1.36114	1.36084	1.35943
303.15 K, x2 = 0.1271	1.37303	1.37006	1.36672	1.36392	1.36246	1.3624	1.36116	1.36086	1.35944
303.15 K, x2 = 0.1827	1.37268	1.36973	1.36639	1.36258	1.36214	1.36209	1.36085	1.36055	1.35913
303.15 K, x2 = 0.2162	1.37251	1.36956	1.36618	1.36341	1.36196	1.36191	1.36065	1.36036	1.35895
303.15 K, x2 = 0.251	1.3735	1.36955	1.36621	1.36343	1.36198	1.36193	1.36068	1.36039	1.35898
303.15 K, x2 = 0.3298	1.37186	1.36893	1.36561	1.36283	1.3614	1.36134	1.36011	1.35981	1.35839
303.15 K, x2 = 0.3577	1.37205	1.36912	1.36581	1.36302	1.36159	1.36153	1.36029	1.35999	1.35898
303.15 K, x2 = 0.4497	1.3695	1.36661	1.36334	1.36058	1.35917	1.35912	1.35789	1.3576	1.35619
303.15 K, x2 = 0.4525	1.37001	1.36711	1.36382	1.36107	1.35964	1.35959	1.35835	1.35805	1.35666
303.15 K, x2 = 0.522	1.3677	1.36484	1.36159	1.35886	1.35746	1.35741	1.35619	1.3559	1.3545
303.15 K, x2 = 0.5543	1.36716	1.36432	1.36106	1.35836	1.35695	1.3569	1.35568	1.35539	1.35399
303.15 K, x2 = 0.609	1.36428	1.36149	1.35828	1.35561	1.35421	1.35416	1.35295	1.35266	1.35129
303.15 K, x2 = 0.6529	1.36277	1.35999	1.35681	1.35414	1.35275	1.35269	1.3515	1.35122	1.34985
303.15 K, x2 = 0.7504	1.35877	1.35604	1.35295	1.35029	1.34898	1.34888	1.34771	1.34743	1.34608
303.15 K, x2 = 0.804	1.35438	1.35174	1.34869	1.34608	1.34474	1.34469	1.34354	1.34327	1.34193
303.15 K, x2 = 0.807	1.35432	1.35168	1.34861	1.34603	1.34467	1.34462	1.34346	1.3432	1.34186
303.15 K, x2 = 0.8727	1.34909	1.34651	1.34352	1.34092	1.33965	1.3396	1.33846	1.3382	1.33691
303.15 K, x2 = 0.9233	1.34198	1.3395	1.33657	1.33409	1.33279	1.33274	1.33164	1.33139	1.33015
303.15 K, x2 = 0.9253	1.34381	1.34132	1.33839	1.3359	1.33458	1.33453	1.33342	1.33317	1.3319
303.15 K, x2 = 0.9527	1.34063	1.33817	1.33525	1.33279	1.3315	1.33145	1.33035	1.33009	1.32886
303.15 K, x2 = 0.9773	1.33704	1.33466	1.33174	1.32933	1.32803	1.32799	1.32689	1.32665	1.32546
303.15 K, x2 = 0.989	1.33587	1.33351	1.33062	1.3282	1.32693	1.32688	1.32579	1.32555	1.32216
303.15 K, x2 = 0.9964	1.33483	1.33219	1.32929	1.32688	1.32561	1.32557	1.32451	1.32427	1.32308
308.15 K, x2 = 0	1.37035	–	–	–	–	–	–	–	–
308.15 K, x2 = 0.0423	1.37024	–	–	–	–	–	–	–	–
308.15 K, x2 = 0.0424	1.37025	–	–	–	–	–	–	–	–
308.15 K, x2 = 0.082	1.37021	–	–	–	–	–	–	–	–
